Assay results taken from ChEMBL document CHEMBL5154929, “Optimization of the Natural Product Calothrixin A to Discover Novel Dual Topoisomerase I and II Inhibitors with Improved Anticancer Activity” (J Med Chem, 2022).
The source made the active and inactive calls. No cut-off for these calls is given here.

Key:
[1] = Volume of distribution in Kunming mouse plasma at 10 mg/kg, iv administered as single dose measured after 5 to 360 mins by HPLC analysis; assay type: ADME, organism-based; conditions: time 5-360 min
A-375 [2] = experiment: Induction of cell cycle arrest in human A-375 cells assessed as accumulation of cells at G2 phase at 20 nM incubated for 24 hrs by PI based flow cytometric analysis (RVB = 20.34%); assay type: functional
[3] = In vivo acute toxicity in Balb/C mouse assessed as effect on body weight at 50 mg/kg, iv administered once per 2 days for 7 days measured every other day; assay type: organism-based; conditions: 168 h, time 7 day
A-375 [4] = experiment: Induction of cell cycle arrest in human A-375 cells assessed as accumulation of cells at S phase at 20 nM incubated for 24 hrs by PI based flow cytometric analysis (RVB = 26.73%); assay type: functional
A-375 [5] = experiment: In vivo antitumor activity against human A-375 cells xenografted in BALB/c nude mouse assessed as decrease in tumor volume treated after 7 days of tumor implantation on right flank subcutaneously at 10 to 20 mg/kg, iv administered once per 2 days for 14 days measured once every two days; assay type: functional, organism-based; conditions: dose 10-20 mg/kg, time 14.0 day
A-375 [6] = experiment: Induction of apoptosis in human A-375 cells assessed as increase in expression level of Bad measured after 24 hrs by Western blotting analysis; assay type: functional, cell-based; conditions: dose 40-120 nM, DDE = dose-dependent effect
A-375 [7] = experiment: In vivo antitumor activity against human A-375 cells xenografted in BALB/c nude mouse assessed as shrinkage of tumor tissue treated after 7 days of tumor implantation on right flank subcutaneously at 10 to 20 mg/kg, iv administered once per 2 days for 14 days measured once every two days; assay type: functional, organism-based; conditions: dose 10-20 mg/kg, time 14.0 day
HCT-116 = experiment: Antiproliferative activity against doxorubicin resistant human HCT-116 cells measured after 72 hrs by MTT assay; assay type: functional, cell-based; conditions: HCT-116, 72 h
[8] = In vivo acute toxicity in Balb/C mouse assessed as pathological damage in spleen at 50 mg/kg, iv administered once per 2 days for 7 days measured 24 hrs after last dose by H and E staining method; assay type: organism-based; conditions: 168 h, time 7 day
A-375 [9] = experiment: Induction of cell cycle arrest in human A-375 cells assessed as accumulation of cells at G1 phase at 20 nM incubated for 24 hrs by PI based flow cytometric analysis (RVB = 52.94%); assay type: functional
[10] = Half life in Kunming mouse plasma at 10 mg/kg, iv administered as single dose measured after 5 to 360 mins by HPLC analysis; assay type: ADME, organism-based; conditions: time 5-360 min
MCF7 = experiment: Cytotoxicity against human MCF7 cells expressing high level of topoisomerase I/II measured after 72 hrs by MTT assay; assay type: functional, cell-based; conditions: MCF7, 72 h
Calf thymus DNA = experiment: Binding affinity to calf thymus DNA assessed as intercalation by measuring hypochromic shift at 389 nm by […]; assay type: nucleic-acid assay; conditions: Bos taurus

With `O=C1c2c[n+]([O-])c3ccccc3c2C(=O)c2c1c1ccccc1n2Cc1cn([C@@H]2C[C@H](O)[C@@H](CO)O2)nn1` the Vd [1] was 0.234 L/kg, the Activity (A-375 [2]) was 29.19% and the Activity [3] was “Non-Toxic”. The Activity (A-375 [4]) was 38.36%, the Activity (A-375 [5]) was “Active” and the Activity (A-375 [6]) was “Dde”. For the same molecule, the Activity (A-375 [7]) was “Active”, the IC50 (HCT-116) was 70 nM and the Activity [8] was “Non-Toxic”. It also gave an Activity (A-375 [9]) of 32.45%, a half-life [10] of 2.52 h and an IC50 (MCF7) of 110 nM. It also gave an Activity (Calf thymus DNA) of 29%.
